# Measurements as given in US11214803B2, “Modulators of YAP1 expression” (Ionis Pharmaceuticals, Inc., priority 2019, dated 2022).
# Strand notation (5' to 3'): a small letter for the sugar, then the base; units joined by * are phosphorothioate-linked, units joined directly phosphodiester-linked; [ ] holds rarer units or linkages, { } end groups; capitals alone tell only the bases. k = constrained ethyl (cEt); [5mC] = 5-methylcytosine; d = 2'-deoxy (DNA)
# System: Yap1 mRNA
# Test: Dose-dependent inhibition of human Yap1 in A-431 cells (Example 7, 10,000 cells per well, RTS36584)
# Assay type: cell-based
# Conditions: free uptake
# Description: Modified oligonucleotides described in the studies above were tested at various doses in A-431 cells. Cultured A-431 cells at a density of 10,000 cells per well were treated using free uptake with modified oligonucleotides diluted to concentrations described in the tables below. After approximately 48 hours, Yap1 mRNA levels were measured as previously described using the Human Yap1 primer-probe set RTS36584. Yap1 mRNA levels were normalized to total RNA content, as measured by RIBOGREEN®. Results are presented in the tables below as percent control of the amount of Yap1 mRNA relative to untreated control cells (% UTC). IC50s were calculated using a linear regression on a log/linear plot of the data in excel.
# [1] = Table 59, 15.6 nM, A-431 cells 10,000 cells per well, 48 hours
# [2] = Table 59, 62.5 nM, A-431 cells 10,000 cells per well, 48 hours
# [3] = Table 59, 4000.00 nM, A-431 cells 10,000 cells per well, 48 hours
# [4] = Table 59, A-431 cells 10,000 cells per well
# [5] = Table 61, 15.6 nM, A-431 cells 10,000 cells per well, 48 hours
# [6] = Table 61, 62.5 nM, A-431 cells 10,000 cells per well, 48 hours
# [7] = Table 61, 4000.00 nM, A-431 cells 10,000 cells per well, 48 hours
# [8] = Table 61, A-431 cells 10,000 cells per well
# [9] = Table 56, 15.6 nM, A-431 cells 10,000 cells per well, 48 hours
# [10] = Table 56, 62.5 nM, A-431 cells 10,000 cells per well, 48 hours
# [11] = Table 56, 4000.00 nM, A-431 cells 10,000 cells per well, 48 hours
# [12] = Table 56, A-431 cells 10,000 cells per well
# [13] = Table 60, 15.6 nM, A-431 cells 10,000 cells per well, 48 hours
# [14] = Table 60, 62.5 nM, A-431 cells 10,000 cells per well, 48 hours
# [15] = Table 60, 4000.00 nM, A-431 cells 10,000 cells per well, 48 hours
# [16] = Table 60, A-431 cells 10,000 cells per well
# [17] = Table 57, 15.6 nM, A-431 cells 10,000 cells per well, 48 hours
# [18] = Table 57, 62.5 nM, A-431 cells 10,000 cells per well, 48 hours
# [19] = Table 57, 4000.00 nM, A-431 cells 10,000 cells per well, 48 hours
# [20] = Table 57, A-431 cells 10,000 cells per well
substance,measurement,setting,value
958562 (k[5mC]*kA*kT*dT*dG*dA*dA*dA*dG*dA*d[5mC]*d[5mC]*d[5mC]*kT*kT*kA; antisense) [compound 958562],"Yap1 mRNA, % UTC",[1],105 % UTC
same,"Yap1 mRNA, % UTC",[2],95 % UTC
same,"Yap1 mRNA, % UTC",[3],28 % UTC
same,IC50,[4],0.4 µM
958474 (kG*kT*kG*dT*d[5mC]*dT*d[5mC]*d[5mC]*dT*dT*dA*dG*dA*kT*k[5mC]*k[5mC]; antisense) [compound 958474],"Yap1 mRNA, % UTC",[5],63 % UTC
same,"Yap1 mRNA, % UTC",[6],37 % UTC
same,"Yap1 mRNA, % UTC",[7],11 % UTC
same,IC50,[8],0.03 µM
958799 (kA*kT*kT*dA*d[5mC]*dT*d[5mC]*dA*dA*dT*d[5mC]*dA*dT*kG*kG*kT; antisense) [compound 958799],"Yap1 mRNA, % UTC",[5],88 % UTC
same,"Yap1 mRNA, % UTC",[6],53 % UTC
same,"Yap1 mRNA, % UTC",[7],10 % UTC
same,IC50,[8],0.1 µM
958555 (kG*k[5mC]*kT*dT*dA*dT*dA*dT*dT*dG*dA*dA*dG*kA*kG*kT; antisense) [compound 958555],"Yap1 mRNA, % UTC","15.6 nM, A-431 cells, 10,000 cells per well, approximately 48 hours",99 % UTC
same,"Yap1 mRNA, % UTC","62.5 nM, A-431 cells, 10,000 cells per well, approximately 48 hours",73 % UTC
same,"Yap1 mRNA, % UTC","4000.00 nM, A-431 cells, 10,000 cells per well, approximately 48 hours",13 % UTC
same,IC50,"A-431 cells, approximately 48 hours, linear regression on log/linear plot",0.2 µM
958536 (kA*kG*kG*dG*dT*d[5mC]*dA*dA*dT*dT*dT*dT*d[5mC]*kA*kG*k[5mC]; antisense) [compound 958536],"Yap1 mRNA, % UTC",[9],94 % UTC
same,"Yap1 mRNA, % UTC",[10],67 % UTC
same,"Yap1 mRNA, % UTC",[11],16 % UTC
same,IC50,[12],0.14 µM
958724 (kT*k[5mC]*kA*dG*dT*dT*dA*dT*d[5mC]*d[5mC]*dT*dA*dT*k[5mC]*k[5mC]*k[5mC]; antisense) [compound 958724],"Yap1 mRNA, % UTC",[5],89 % UTC
same,"Yap1 mRNA, % UTC",[6],55 % UTC
same,"Yap1 mRNA, % UTC",[7],6 % UTC
same,IC50,[8],0.1 µM
958648 (kG*kA*kA*dT*dA*d[5mC]*dT*dG*dA*dG*dT*d[5mC]*dA*kG*kG*kA; antisense) [compound 958648],"Yap1 mRNA, % UTC",[13],80 % UTC
same,"Yap1 mRNA, % UTC",[14],65 % UTC
same,"Yap1 mRNA, % UTC",[15],24 % UTC
same,IC50,[16],0.2 µM
958523 (kT*kT*k[5mC]*d[5mC]*dA*dA*dT*d[5mC]*dG*dA*dG*dA*d[5mC]*kT*kT*kA; antisense) [compound 958523],"Yap1 mRNA, % UTC",[13],86 % UTC
same,"Yap1 mRNA, % UTC",[14],64 % UTC
same,"Yap1 mRNA, % UTC",[15],12 % UTC
same,IC50,[16],0.1 µM
958377 (antisense kG*k[5mC]*kT*dG*dG*dG*dA*dT*dT*dG*dA*dT*dA*kT*kT*k[5mC]) [compound 958377],"Yap1 mRNA, % UTC",[9],90 % UTC
same,"Yap1 mRNA, % UTC",[10],60 % UTC
same,"Yap1 mRNA, % UTC",[11],17 % UTC
same,IC50,[12],0.13 µM
958531 (kG*kT*kA*dG*dG*dA*dG*d[5mC]*dA*dA*dG*dT*d[5mC]*kT*kT*kG; antisense) [compound 958531],"Yap1 mRNA, % UTC",[17],92 % UTC
same,"Yap1 mRNA, % UTC",[18],63 % UTC
same,"Yap1 mRNA, % UTC",[19],13 % UTC
same,IC50,[20],0.1 µM
958518 (k[5mC]*k[5mC]*kA*d[5mC]*dA*dG*dT*dA*dA*dT*dA*dG*d[5mC]*kT*k[5mC]*kT; antisense) [compound 958518],"Yap1 mRNA, % UTC",[1],95 % UTC
same,"Yap1 mRNA, % UTC",[2],55 % UTC
same,"Yap1 mRNA, % UTC",[3],4 % UTC
same,IC50,[4],0.1 µM
958484 (kG*k[5mC]*kA*dG*d[5mC]*dA*dA*dT*dG*dG*dA*d[5mC]*dA*kA*kG*kG; antisense) [compound 958484],"Yap1 mRNA, % UTC",[5],77 % UTC
same,"Yap1 mRNA, % UTC",[6],38 % UTC
same,"Yap1 mRNA, % UTC",[7],4 % UTC
same,IC50,[8],0.05 µM
958616 (kG*kG*kT*dG*dG*dT*d[5mC]*dT*dT*dG*dT*dT*d[5mC]*kT*kT*kA; antisense) [compound 958616],"Yap1 mRNA, % UTC",[17],78 % UTC
same,"Yap1 mRNA, % UTC",[18],49 % UTC
same,"Yap1 mRNA, % UTC",[19],17 % UTC
same,IC50,[20],0.1 µM
958491 (kA*k[5mC]*kT*dA*dA*dA*dT*dG*d[5mC]*dT*dG*dT*dG*kA*k[5mC]*kA; antisense) [compound 958491],"Yap1 mRNA, % UTC",[17],94 % UTC
same,"Yap1 mRNA, % UTC",[18],65 % UTC
same,"Yap1 mRNA, % UTC",[19],10 % UTC
same,IC50,[20],0.1 µM
958527 (kG*kT*kA*dA*dG*dT*dA*dA*dG*dA*dA*d[5mC]*dA*kA*kT*k[5mC]; antisense) [compound 958527],"Yap1 mRNA, % UTC","Table 58, 15.6 nM, A-431 cells 10,000 cells per well, 48 hours",89 % UTC
same,"Yap1 mRNA, % UTC","Table 58, 62.5 nM, A-431 cells 10,000 cells per well, 48 hours",74 % UTC
same,"Yap1 mRNA, % UTC","Table 58, 4000.00 nM, A-431 cells 10,000 cells per well, 48 hours",13 % UTC
same,IC50,"Table 58, A-431 cells 10,000 cells per well",0.1 µM
